Molecular target: T1, SLC38A9 (Homo sapiens, UniProt Q8NBW4)
T1 sequence (Q8NBW4 1-561): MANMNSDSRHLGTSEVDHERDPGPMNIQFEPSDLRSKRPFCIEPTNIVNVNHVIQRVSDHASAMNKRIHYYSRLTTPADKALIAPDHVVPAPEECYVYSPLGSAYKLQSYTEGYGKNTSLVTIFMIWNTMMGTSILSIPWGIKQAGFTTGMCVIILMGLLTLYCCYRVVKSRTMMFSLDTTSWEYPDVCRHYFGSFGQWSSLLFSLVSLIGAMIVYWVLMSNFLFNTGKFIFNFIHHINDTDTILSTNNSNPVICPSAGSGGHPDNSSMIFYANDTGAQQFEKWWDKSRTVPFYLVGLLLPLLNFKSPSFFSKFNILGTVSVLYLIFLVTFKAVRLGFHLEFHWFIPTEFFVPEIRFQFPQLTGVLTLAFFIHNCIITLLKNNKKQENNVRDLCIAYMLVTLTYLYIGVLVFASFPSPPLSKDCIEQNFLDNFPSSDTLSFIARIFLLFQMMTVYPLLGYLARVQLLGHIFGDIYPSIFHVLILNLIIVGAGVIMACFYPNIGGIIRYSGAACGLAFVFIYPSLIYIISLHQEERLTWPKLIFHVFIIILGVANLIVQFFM
Test: SPR
Type: binding

SMILES: C=CC(=O)Nc1cccc2[nH]nc(-c3nc4ccc(N5CCN(C)CC5)cc4[nH]3)c12 [LLAD, N-(3-(6-(4-Methylpiperazin-1-yl) -1H-benzo[d]imidazole-2-yl)-1H-indazol-4-yl) acrylamide]
- Kd: 1290 nM
